# Source: ChEMBL document CHEMBL1142603, “Manzamine B and E and ircinal A related alkaloids from an Indonesian Acanthostrongylophora sponge and their activity against infectious, tropical parasitic, and Alzheimer's diseases” (J Nat Prod, 2006)
# The source made the active and inactive calls. No cut-off for these calls is given here.
# How the values were obtained:
# [1] = molecular target: T1, Acetylcholinesterase (Bos taurus) (UniProt P23795); test: Inhibition of bovine AChE
# T1 sequence (whole entry): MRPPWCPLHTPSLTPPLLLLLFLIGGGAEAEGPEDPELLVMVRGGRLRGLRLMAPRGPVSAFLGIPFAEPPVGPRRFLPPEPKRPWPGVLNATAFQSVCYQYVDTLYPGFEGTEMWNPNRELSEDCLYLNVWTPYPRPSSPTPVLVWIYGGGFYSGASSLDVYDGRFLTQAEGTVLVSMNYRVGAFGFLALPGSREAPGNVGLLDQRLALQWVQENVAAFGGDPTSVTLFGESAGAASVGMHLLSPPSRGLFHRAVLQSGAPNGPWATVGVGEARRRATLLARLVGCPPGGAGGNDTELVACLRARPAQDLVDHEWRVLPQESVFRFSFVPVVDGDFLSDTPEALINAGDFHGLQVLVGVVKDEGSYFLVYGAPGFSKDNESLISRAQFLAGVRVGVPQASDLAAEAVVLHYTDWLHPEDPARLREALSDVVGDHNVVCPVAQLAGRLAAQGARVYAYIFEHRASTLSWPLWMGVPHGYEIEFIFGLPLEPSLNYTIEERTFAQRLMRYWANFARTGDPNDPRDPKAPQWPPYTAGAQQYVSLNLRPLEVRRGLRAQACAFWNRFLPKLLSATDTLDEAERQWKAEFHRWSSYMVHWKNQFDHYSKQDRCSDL
# [2] = system: Plasmodium falciparum; test: Antimalarial activity after 72 hrs against chloroquine-sensitive Plasmodium falciparum D6 in erythrocytes at […] by LDH reporter assay; assay type: functional, organism-based
# [3] = system: Mycobacterium intracellulare; test: Antibacterial activity against Mycobacterium intracellular by alamar blue assay; assay type: functional, organism-based
# [4] = system: Staphylococcus aureus; test: Antibacterial activity against Staphylococcus aureus; assay type: functional, organism-based
# [5] = system: Plasmodium falciparum; test: Antimalarial activity after 72 hrs against chloroquine-resistant Plasmodium falciparum W2 in erythrocytes at […] by LDH reporter assay; assay type: functional, organism-based
# [6] = system: Cryptococcus neoformans; test: Antifungal activity against Cryptococcus neoformans; assay type: functional, organism-based
# [7] = system: Vero; test: Cytotoxicity against african green monkey Vero cells at 4.76 ug/mL by neutral red assay; assay type: cell-based; conditions: chlorocebus sabaeus
# [8] = molecular target: Beta-secretase 1 (Homo sapiens) (UniProt P56817); test: Inhibition of human recombinant BACE1 by FRET-based assay
# [9] = system: Staphylococcus aureus; test: Antibacterial activity against methicillin-resistant Staphylococcus aureus; assay type: functional, organism-based
# [10] = system: Human immunodeficiency virus 1; test: Antiviral activity against HIV1 3B assessed as reverse transcriptase activity by enzyme immunoassay; assay type: functional, organism-based; conditions: Human immunodeficiency virus 1, 3B
# [11] = system: Leishmania donovani; test: Antileishmanial activity against Leishmania donovani after 72 hrs by alamar blue assay; assay type: functional, organism-based
# [12] = system: Plasmodium falciparum; test: Antimalarial activity after 72 hrs against chloroquine-resistant Plasmodium falciparum W2 in erythrocytes by LDH reporter assay; assay type: functional, organism-based; conditions: W2, 72 h
# [13] = system: Plasmodium falciparum; test: Antimalarial activity after 72 hrs against chloroquine-sensitive Plasmodium falciparum D6 in erythrocytes by LDH reporter assay; assay type: functional, organism-based; conditions: D6, 72 h
# [14] = molecular target: Glycogen synthase kinase-3 beta (Homo sapiens) (UniProt P49841); test: Inhibition of human recombinant GSK3-beta assessed as incorporation of [33P]gammaATP into G2S peptide at 25 uM
# [15] = system: Mycobacterium tuberculosis; test: Antituberculosis activity against Mycobacterium tuberculosis H37Rv after 24 hrs by alamar blue assay; assay type: functional
# [16] = system: Vero; test: Cytotoxicity against african green monkey Vero cells by neutral red assay; assay type: cell-based; conditions: chlorocebus sabaeus
# Sequence of Glycogen synthase kinase-3 beta (Homo sapiens) (P49841 whole entry, looked up): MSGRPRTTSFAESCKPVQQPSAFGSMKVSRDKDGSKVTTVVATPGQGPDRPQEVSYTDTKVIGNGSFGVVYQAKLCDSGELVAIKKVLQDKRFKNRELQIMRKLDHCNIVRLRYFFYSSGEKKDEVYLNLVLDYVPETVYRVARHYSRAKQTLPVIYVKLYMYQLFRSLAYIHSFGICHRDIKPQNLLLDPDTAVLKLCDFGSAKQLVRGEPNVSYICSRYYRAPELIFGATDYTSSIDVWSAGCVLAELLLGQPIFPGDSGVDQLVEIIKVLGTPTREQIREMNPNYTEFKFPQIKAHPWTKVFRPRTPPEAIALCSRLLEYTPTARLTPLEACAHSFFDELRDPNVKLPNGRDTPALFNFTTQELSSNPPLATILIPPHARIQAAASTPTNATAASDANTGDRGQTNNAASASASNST
# Sequence of Beta-secretase 1 (Homo sapiens) (P56817 whole entry): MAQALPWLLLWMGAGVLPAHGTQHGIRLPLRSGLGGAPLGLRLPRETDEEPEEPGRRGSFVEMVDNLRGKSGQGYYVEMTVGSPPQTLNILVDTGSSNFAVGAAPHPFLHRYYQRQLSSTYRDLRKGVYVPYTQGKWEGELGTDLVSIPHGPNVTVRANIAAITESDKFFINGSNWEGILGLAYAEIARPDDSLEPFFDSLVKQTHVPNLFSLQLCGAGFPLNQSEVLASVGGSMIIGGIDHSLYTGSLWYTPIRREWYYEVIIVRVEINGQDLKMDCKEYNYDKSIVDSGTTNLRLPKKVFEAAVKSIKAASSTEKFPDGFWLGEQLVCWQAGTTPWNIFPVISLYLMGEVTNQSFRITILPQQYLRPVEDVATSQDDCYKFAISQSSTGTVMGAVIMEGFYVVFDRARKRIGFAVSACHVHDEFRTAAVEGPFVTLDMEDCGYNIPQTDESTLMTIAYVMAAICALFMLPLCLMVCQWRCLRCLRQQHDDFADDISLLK
Compound,Activity [1],Activity [4],Activity [6],Activity [7],Activity [8],Activity [9],IC50 [10] [µg/mL],IC50 [11] [µg/mL],IC90 [11] [µg/mL],IC50 [12] [µg/mL],IC50 [13] [µg/mL],IC50 [3] [µg/mL],MIC [15] [µg/mL],also measured
"Oc1cccc2c3cc[nH]c(C4=C[C@]56CC/C=C\CCCCN7CC[C@@H]4[C@]4(C[C@@H]8/C=C\CCC[C@@H](O5)N8[C@H]46)C7)c-3nc12 [12,28-OXA-8-HYDROXY-MANZAMINE A]",inactive,inactive,inactive,Non-toxic,inactive,inactive,,,,,,,,Activity [2]: inactive; Activity [3]: inactive; Activity [5]: inactive
"C1=C(c2[nH]ccc3c4ccccc4nc2-3)[C@@H]2CCN3CCCC/C=C\CC[C@]14O[C@@H]1CCC/C=C\[C@H]5C[C@@]2(C3)[C@H]4N51 [12,28-OXAMANZAMINE A]",inactive,inactive,inactive,Non-toxic,inactive,inactive,22.2,7.8,50,,,,,Activity [2]: inactive; Activity [3]: inactive; Activity [5]: inactive
C[C@@H]1[C@H](O)[C@@H](C)/C=C/C=C/C=C/C=C/C=C/C=C/C=C/[C@H](O[C@@H]2O[C@H](C)[C@@H](O)[C@H](N)[C@@H]2O)C[C@@H]2O[C@](O)(C[C@@H](O)C[C@@H](O)[C@H](O)CC[C@@H](O)C[C@@H](O)CC(=O)O[C@H]1C)C[C@H](O)[C@H]2C(=O)O [AMPHOTERICIN B],,,,,,,,0.06,0.15,,,,,IC50 [6]: 0.15 µg/mL
C[C@@H]1CC[C@H]2[C@@H](C)C(=O)O[C@@H]3O[C@@]4(C)CC[C@@H]1[C@]32OO4 [ARTEMISININ],,,,,,,,,,0.0063,0.01,,,
O=C(O)c1cn(C2CC2)c2cc(N3CCNCC3)c(F)cc2c1=O [CIPROFLOXACIN],,,,,,,,,,,,0.25,,
O=C1CCCN2[C@@H](CC1)C[C@]13CN4CCCC/C=C\CC[C@](O)(C=C(c5nccc6c5[nH]c5ccccc56)C1CC4)[C@H]23 (some centres not stated) [MANZAMINE E],inactive,inactive,inactive,Non-toxic,inactive,inactive,13.1,3.8,6.8,4.76,3.4,12.5,3.8,inhibition [14]: 53.6%
O=C1CCCN2[C@@H](CC1)C[C@]13CN4CCCC/C=C\CC[C@](O)(C=C(c5nccc6c5[nH]c5c(O)cccc56)C1CC4)[C@H]23 (some centres not stated) [MANZAMINE F],inactive,inactive,,Non-toxic,inactive,inactive,7.3,4.2,7,1.7,0.78,6.25,2.6,inhibition [14]: 29.9%; IC50 [6]: 6.5 µg/mL
Oc1ccc2[nH]c3c(C4=C[C@@]5(O)CC/C=C\CCCCN6CC[C@@H]4[C@]4(C[C@@H]7/C=C\CCCCN7[C@H]45)C6)nccc3c2c1 [MANZAMINE Y],inactive,,inactive,,inactive,,,1.6,8,0.85,0.42,3.5,5.2,inhibition [14]: 74.3%; IC50 [4]: 15 µg/mL; IC50 [16]: 3.9 µg/mL; IC50 [9]: 15 µg/mL
N=C(N)c1ccc(OCCCCCOc2ccc(C(=N)N)cc2)cc1 [PENTAMIDINE],,,,,,,,2.1,10,,,,,
CO[C@H]1/C=C/O[C@@]2(C)Oc3c(C)c(O)c4c(O)c(c(/C=N/N5CCN(C)CC5)c(O)c4c3C2=O)NC(=O)/C(C)=C\C=C\[C@H](C)[C@H](O)[C@@H](C)[C@@H](O)[C@@H](C)[C@H](OC(C)=O)[C@@H]1C [RIFAMPIN],,,,,,,,,,,,,0.5,
Cc1cn([C@H]2C[C@H](N=[N+]=[N-])[C@@H](CO)O2)c(=O)[nH]c1=O [ZIDOVUDINE],,,,,,,0.004,,,,,,,
